Results as given in patent US12115152B2, “Pan-RAF kinase inhibitor and use thereof” (HEFEI INSTITUTES OF PHYSICAL SCIENCE, CHINESE ACADEMY OF …, priority 2019, dated 2024).
Values joined by “and” are separate entries in the source; they are usually repeats but may differ in a detail not shown here. Identical values can stand only once. Like-named read-outs stand apart in the source and are kept apart here.

Tests used:
[1] = Pharmacokinetic parameters in rats; format: in vivo, SD rats; details: rat
Method: In the example, SD rats (180-220 g, male) (purchased from Experimental Animal Center of Anhui Medical University, China) were used. The animals were kept in cages ventilated independently with 6 rats per cage. The feeding was performed at a temperature of 20˜26° C. and a humidity of 35-75%. The light condition was 12 hours of lighting/12 hours of darkness. The corncob bedding was refreshed once a week. The rats were fed with foods and drinking water on an ad libitum basis. The rats were marked with a number on the tails. During the experiment, the breeding and use of animals strictly follow the regulations of Association for Assessment and Accreditation of Laboratory Animal Care International.
Solutions of Compound 16 and Comparative Compound 1 were prepared as follows. 10 mg of the compound to be tested was precisely weighed into a sterile vial, and was dissolved with a small amount of DMSO, and then was made to a constant volume of 5 ml with 5% glucose solution, to give a gavage test solution at a concentration of 2 mg/mL. 0.5 ml of the above gavage test solution at a concentration of 2 mg/mL was precisely taken, and was made to constant volume of 5 ml with 4.5 ml of 5% glucose solution, to give an intravenous injection test solution at a concentration of 0.2 mg/mL. The solution was prepared immediately before being used in the experiment.
6 SD rats were randomly divided into two groups, and the synthesized compounds were administered by gavage and tail vein injection, respectively. About 0.3 mL of blood samples were collected from the retro-orbital venous plexus at 0 h before administration and at 5 min, 15 min, 30 min, 1 h, 1.5 h, 2 h, 4 h, 6 h, 9 h, 12 h, 24 h after administration for the gavage group; and at 0 h before administration and at 2 min, 5 min, 15 min, 30 min, 1 h, 2 h, 4 h, 6 h, 9 h, and 12 h after administration for the tail vein group. Each of the collected blood samples was put in a 1.5 mL centrifuge tube with heparin (Sigma, USA). The sample was centrifuged at 6000 rpm for 3 min to separate the plasma. 100 μL of plasma in the upper layer was placed into a new 1.5 mL centrifuge tube, and stored at −80° C. for determination. 10 mg of a standard for the compound to be tested was precisely weighed into a 10 mL volumetric flask, and was dissolved by adding methanol to make a constant volume and mixed uniformly, to give a 1 mg/mL stock solution. The stock solution was then diluted gradually with methanol to give a series of working solutions at concentrations of 0.01, 0.02, 0.05, 0.1, 0.2, 0.5, 1, 2, 5, 10, 20 μg/mL. The working solutions were placed in a refrigerator at 4° C. for later use. 11 centrifuge tubes were used. 10 μL of the above working solutions was respectively added to each of the centrifuge tubes, and then 90 μL of blank rat plasma was respectively added therein. The mixtures were mixed uniformly, so that the concentration of the compound in the rat plasma was 1, 2, 5, 10, 20, 50, 100, 200, 500, 1000, 2000 ng/mL. Then, 20 μL of a solution of caffeine as the internal standard (200 ng/mL) (National Institutes for Food and Drug Control, China) was added therein, and the resultant mixtures were vortexed for 10 s. Next, 400 μL of methanol was added. The resultant mixtures were vortexed for 10 min, and centrifuged at 16000 rpm for 5 min. Thereafter, 70 μL of the supernatant was placed into the inserted pipe of a sampling bottle. 5 μL of the sample was introduced for a LC-MS/MS analysis. A standard curve of the compound in the rat plasma was obtained by means of a linear regression performed by taking the ratio of the peak area of the sample to that of the internal standard As/Ais as the vertical ordinate, taking the concentration C (μg/mL) as the horizontal ordinate, and taking 1/C^2 was taken as a weighting coefficient.
To 100 μL of the rat plasma to be tested stored at −80° C., 20 μL of a caffeine solution (200 ng/mL) as the internal standard was added. The resultant mixture was vortexed for 10 s. […]

[2] = test system: Calu-6 transplanted tumor nude mice; test: Toxicity in Calu-6 cell transplanted tumor mouse model; details: Calu-6 cell transplanted tumor model, oral daily; Compound 16 50, 100, 200 mg/kg; Comparative Compound 1 100 mg/kg
[3] = male, Sprague-Dawley, plasma, iv, 1 mg/kg, intravenous injection 1 mg/kg, average n=3
[4] = male, Sprague-Dawley, plasma, iv, 1 mg/kg, intravenous injection 1 mg/kg, individual rats #1-#3
[5] = intravenous injection 1 mg/kg, average n=3
[6] = intravenous injection 1 mg/kg, individual rats #1-#3, listed as Comparative Compound 1, 1 mg/kg
[7] = oral administration (gavage) 10 mg/kg, average n=3
[8] = oral administration (gavage) 10 mg/kg, individual rats #1-#3, listed as Comparative Compound 1, 10 mg/kg

For `Cc1ccc(NC(=O)c2cccc(C(F)(F)F)c2)cc1-n1cc(-c2cccnc2)cn1` [compound 1, 3-trifluoromethyl-N-(4-methyl-3-(4-(pyrid-3-yl)-1H-pyrazol-1-yl)phenyl)benzamide, reference compound], the AUC(0-inf) ([1]; male, SD, plasma, po, 10 mg/kg, oral administration (gavage) 10 mg/kg, average n=3) was 1020 ng·h/mL, the Tmax ([1]; male, SD, plasma, po, 10 mg/kg, oral administration (gavage) 10 mg/kg, average n=3, read-out: Tmax) was 30 min and the half-life ([1]; male, SD, plasma, po, 10 mg/kg, oral administration (gavage) 10 mg/kg, average n=3, read-out: T½ (converted)) was 54.4 min. For the same compound, the Tmax ([1]; male, SD, plasma, po, 10 mg/kg, oral administration (gavage) 10 mg/kg, individual rats #1-#3, read-out: Tmax) was 30 min, the half-life ([1]; male, SD, plasma, po, 10 mg/kg, oral administration (gavage) 10 mg/kg, individual rats #1-#3, read-out: T½ (converted)) was 60.2 min and the AUC(0-inf) [1, 3] was 92.5 ng·h/mL. For the same compound, the clearance [1, 3] was 188 mL/min/kg, the AUC0-t ([1]; male, Sprague-Dawley, plasma, iv, 1 mg/kg, intravenous injection 1 mg/kg, average n=3, read-out: AUC0-t) was 91.6 ng·h/mL and the C0 ([1]; male, Sprague-Dawley, plasma, iv, 1 mg/kg, intravenous injection 1 mg/kg, average n=3, read-out: C0) was 348 ng/mL. It also gave a Cmax ([1]; male, Sprague-Dawley, plasma, iv, 1 mg/kg, intravenous injection 1 mg/kg, average n=3, read-out: Cmax) of 262 ng/mL, an MRT last ([1]; male, Sprague-Dawley, plasma, iv, 1 mg/kg, intravenous injection 1 mg/kg, average n=3, read-out: MRT0-t) of 34 min and an MRT inf ([1]; male, Sprague-Dawley, plasma, iv, 1 mg/kg, intravenous injection 1 mg/kg, average n=3, read-out: MRT0-∞) of 37 min. The Tmax ([1]; male, Sprague-Dawley, plasma, iv, 1 mg/kg, intravenous injection 1 mg/kg, average n=3, read-out: Tmax) was 1.98 min, the half-life ([1]; male, Sprague-Dawley, plasma, iv, 1 mg/kg, intravenous injection 1 mg/kg, average n=3, read-out: T½ (converted)) was 42.9 min and the Vd ([1]; male, Sprague-Dawley, plasma, iv, 1 mg/kg, intravenous injection 1 mg/kg, average n=3, read-out: Vz) was 12 L/kg. For the same compound, the AUC(0-inf) [1, 4] was 84 ng·h/mL, the clearance [1, 4] was 198 mL/min/kg and the AUC0-t ([1]; male, Sprague-Dawley, plasma, iv, 1 mg/kg, intravenous injection 1 mg/kg, individual rats #1-#3, read-out: AUC0-t) was 83.3 ng·h/mL. For the same compound, the C0 ([1]; male, Sprague-Dawley, plasma, iv, 1 mg/kg, intravenous injection 1 mg/kg, individual rats #1-#3, read-out: C0) was 260 ng/mL, the Cmax ([1]; male, Sprague-Dawley, plasma, iv, 1 mg/kg, intravenous injection 1 mg/kg, individual rats #1-#3, read-out: Cmax) was 200 ng/mL and the MRT last ([1]; male, Sprague-Dawley, plasma, iv, 1 mg/kg, intravenous injection 1 mg/kg, individual rats #1-#3, read-out: MRT0-t) was 36.3 min. The MRT inf ([1]; male, Sprague-Dawley, plasma, iv, 1 mg/kg, intravenous injection 1 mg/kg, individual rats #1-#3, read-out: MRT0-∞) was 38.5 min, the Tmax ([1]; male, Sprague-Dawley, plasma, iv, 1 mg/kg, intravenous injection 1 mg/kg, individual rats #1-#3, read-out: Tmax) was 1.98 min and the half-life ([1]; male, Sprague-Dawley, plasma, iv, 1 mg/kg, intravenous injection 1 mg/kg, individual rats #1-#3, read-out: T½ (converted)) was 38.8 min. It also gave a bioavailability ([1]; male, Sprague-Dawley, plasma, oral, 10 mg/kg, oral administration (gavage) 10 mg/kg vs intravenous 1 mg/kg, average n=3, read-out: F (oral bioavailability)) of 111%, an AUC0-t ([1]; male, Sprague-Dawley, plasma, po, 10 mg/kg, oral administration (gavage) 10 mg/kg, average n=3, read-out: AUC0-t) of 1010 ng·h/mL and a Cmax ([1]; male, Sprague-Dawley, plasma, po, 10 mg/kg, oral administration (gavage) 10 mg/kg, average n=3, read-out: Cmax) of 576 ng/mL. The MRT last ([1]; male, Sprague-Dawley, plasma, po, 10 mg/kg, oral administration (gavage) 10 mg/kg, average n=3, read-out: MRT0-t) was 93.7 min, the MRT inf ([1]; male, Sprague-Dawley, plasma, po, 10 mg/kg, oral administration (gavage) 10 mg/kg, average n=3, read-out: MRT0-∞) was 98.5 min and the MRT last ([1]; male, Sprague-Dawley, plasma, po, 10 mg/kg, oral administration (gavage) 10 mg/kg, individual rats #1-#3, read-out: MRT0-t) was 109 min. For the same compound, the MRT inf ([1]; male, Sprague-Dawley, plasma, po, 10 mg/kg, oral administration (gavage) 10 mg/kg, individual rats #1-#3, read-out: MRT0-∞) was 115 min, the AUMC0-t [1, 5] was 53.50 hr*hr*ng/ml and the “AUMC0-∞” value [1, 5] was 58.31 hr*hr*ng/ml. The AUC0-t [1, 6] was 71.86 ng·h/mL and 119.59 ng·h/mL, the “AUC0-∞” value [1, 6] was 73.08 ng·h/mL and 120.51 ng·h/mL and the AUMC0-t [1, 6] was 50.39 hr*hr*ng/ml and 31.52 hr*hr*ng/ml and 78.58 hr*hr*ng/ml. For the same compound, the “AUMC0-∞” value [1, 6] was 53.89 hr*hr*ng/ml and 37.99 hr*hr*ng/ml and 83.06 hr*hr*ng/ml, the C0 [1, 6] was 402.4 ng/mL and 380.8 ng/mL and the Cl [1, 6] was 228.07 mL/min/kg and 138.3 mL/min/kg. For the same compound, the Cmax [1, 6] was 285.0 ng/mL and 300.0 ng/mL, the MRT0-t [1, 6] was 26.3 min and 39.4 min and the “MRT0-∞” value [1, 6] was 31.2 min and 41.3 min. The T½ [1, 6] was 54.4 min and 35.5 min, the Vz [1, 6] was 11.101 L/kg and 17.886 L/kg and 7.085 L/kg and the “F (oral bioavailability)” value ([1]; oral administration (gavage) 10 mg/kg vs intravenous 1 mg/kg, individual rats #1-#3, listed as Comparative Compound 1) was 31.2% and 133.6% and 167.2%. For the same compound, the AUMC0-t [1, 7] was 1474 hr*hr*ng/ml, the “AUMC0-∞” value [1, 7] was 1566 hr*hr*ng/ml and the Cl [1, 7] was 273.12 mL/min/kg. The Vz [1, 7] was 22.672 L/kg, the AUC0-t [1, 8] was 285.6 ng·h/mL and 1217 ng·h/mL and 1532 ng·h/mL and the “AUC0-∞” value [1, 8] was 289.0 ng·h/mL and 1236 ng·h/mL and 1547 ng·h/mL. The AUMC0-t [1, 8] was 518.7 hr*hr*ng/ml and 1889 hr*hr*ng/ml and 2013 hr*hr*ng/ml, the “AUMC0-∞” value [1, 8] was 554.4 hr*hr*ng/ml and 2023 hr*hr*ng/ml and 2121 hr*hr*ng/ml and the Cl [1, 8] was 576.77 mL/min/kg and 134.8 mL/min/kg and 107.8 mL/min/kg. For the same compound, the Cmax [1, 8] was 138 ng/mL and 579 ng/mL and 1010 ng/mL, the MRT0-t [1, 8] was 93.12 min and 78.84 min and the “MRT0-∞” value [1, 8] was 98.22 min and 82.26 min. For the same compound, the T½ [1, 8] was 49.3 min and 53.6 min, the Vz [1, 8] was 50.104 L/kg and 9.579 L/kg and 8.334 L/kg and the toxicity [2] was “very strong toxicity as all mice died on Day 8”.
